# Laboratory results from ChEMBL document CHEMBL3596115, “Discovery of novel guanidinophenylpyrazole human acrosin inhibitors by molecular hybridization” (Medchemcomm, 2014).
# pIC50: −log10 of the molar value.
# Target: Acrosin (Homo sapiens, UniProt P10323)
# Test: Inhibition of acrosin in human liquefied human semen using BAPNA incubated at 37.8 degC for 3 hrs by spectrophotometry
# Sequence of Acrosin (P10323 20-42 limits assumed): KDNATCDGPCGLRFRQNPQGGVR
# Sequence of Acrosin (P10323 43-343 limits assumed): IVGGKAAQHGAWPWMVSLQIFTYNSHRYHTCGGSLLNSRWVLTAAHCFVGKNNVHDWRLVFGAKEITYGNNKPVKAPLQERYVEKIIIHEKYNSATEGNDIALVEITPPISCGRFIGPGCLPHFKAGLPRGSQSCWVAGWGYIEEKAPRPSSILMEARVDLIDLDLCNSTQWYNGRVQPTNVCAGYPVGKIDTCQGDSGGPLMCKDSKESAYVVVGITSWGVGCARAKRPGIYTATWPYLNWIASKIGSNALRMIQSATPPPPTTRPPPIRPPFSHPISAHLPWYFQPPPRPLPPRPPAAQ
row,SMILES,pIC50
1,CCN(CC)c1ccc(NC(=O)c2cc(-c3ccc(NC(=N)N)cc3)[nH]n2)cc1,4.59
2,N=C(N)Nc1ccc(-c2cc(C(=O)Nc3cccc(Cl)c3)n[nH]2)cc1,4.75
3,CCOC(=O)c1cc(-c2ccc(NC(=N)N)cc2)[nH]n1,< 4.00
4,N=C(N)Nc1ccc(-c2cc(C(=O)Nc3ccc4c(c3)OCCO4)n[nH]2)cc1,4.59
5,N=C(N)Nc1ccc(-c2cc(C(=O)Nc3ccc(O)cc3)n[nH]2)cc1,4.55
6,N=C(N)Nc1ccc(-c2cc(C(=O)Nc3cccc(C(F)(F)F)c3)n[nH]2)cc1,4.62
7,N=C(N)Nc1ccc(-c2cc(C(=O)O)n[nH]2)cc1,< 4.00
8,N=C(N)Nc1ccc(-c2cc(C(=O)Nc3ccc(C(F)(F)F)cc3)n[nH]2)cc1,4.78
9,N=C(N)Nc1ccc(-c2cc(C(=O)Nc3cccc4ccccc34)n[nH]2)cc1,4.61
10,N=C(N)Nc1ccc(-c2cc(C(=O)Nc3ccc(Cl)cc3)n[nH]2)cc1,4.62
11,N=C(N)Nc1ccc(-c2cc(C(=O)Nc3ccc(F)cc3)n[nH]2)cc1,4.61
12,N=C(N)Nc1ccc(-c2cc(C(=O)Nc3ccccc3)n[nH]2)cc1,4.82
13,N=C(N)Nc1ccc(-c2cc(C(=O)Nc3ccc(Br)cc3)n[nH]2)cc1,4.79
14,N=C(N)Nc1ccc(-c2cc(C(=O)Nc3ccc(Nc4ccccc4)cc3)n[nH]2)cc1,4.57

# These reach a higher pIC50. Values come first.
row,pIC50,SMILES
1,4.88,N=C(N)Nc1ccc(-c2cc(C(=O)Nc3cccc(Br)c3)n[nH]2)cc1
2,4.95,COc1ccc(NC(=O)c2cc(-c3ccc(NC(=N)N)cc3)[nH]n2)cc1
3,4.96,Cc1ccccc1NC(=O)c1cc(-c2ccc(NC(=N)N)cc2)[nH]n1
4,5.02,Cc1cc(C)cc(NC(=O)c2cc(-c3ccc(NC(=N)N)cc3)[nH]n2)c1
5,5.03,Cc1cccc(NC(=O)c2cc(-c3ccc(NC(=N)N)cc3)[nH]n2)c1
6,5.07,Cc1cccc(NC(=O)c2cc(-c3ccc(NC(=N)N)cc3)[nH]n2)c1C
7,5.13,Cc1ccc(C)c(NC(=O)c2cc(-c3ccc(NC(=N)N)cc3)[nH]n2)c1
8,5.23,CC(C)(C)c1ccc(NC(=O)c2cc(-c3ccc(NC(=N)N)cc3)[nH]n2)cc1
9,5.24,CCOC(=O)c1ccccc1NC(=O)c1cc(-c2ccc(NC(=N)N)cc2)[nH]n1
10,5.36,Cc1cccc(C)c1NC(=O)c1cc(-c2ccc(NC(=N)N)cc2)[nH]n1
11,5.46,COc1ccc(NC(=O)c2cc(-c3ccc(NC(=N)N)cc3)[nH]n2)cc1OC
12,5.62,COc1cccc(NC(=O)c2cc(-c3ccc(NC(=N)N)cc3)[nH]n2)c1
13,5.62,COC(=O)c1ccc(OC(=O)c2ccc(NC(=N)N)cc2)cc1
14,5.62,COc1ccc(NC(=O)c2cc(-c3ccc(NC(=N)N)cc3)[nH]n2)c(OC)c1
15,5.90,COc1ccc(OC)c(NC(=O)c2cc(-c3ccc(NC(=N)N)cc3)[nH]n2)c1

# Tested on: not listed separately
# Test: Inhibition of pig trypsin
# Set-up: species or system Sus scrofa
row,pIC50,SMILES
1,2.68,COc1ccc(OC)c(NC(=O)c2cc(-c3ccc(NC(=N)N)cc3)[nH]n2)c1
